Earlier results, collected in patent publication US20250325518A1, “USE OF A COMBINATION OF SACUBITRIL AND VALSARTAN” (Novartis AG, priority 2016, published 2025).

Key:
[1] = system: adult patients with HF with reduced ejection fraction (HFrEF); conditions: LCZ696 vs enalapril
[2] = system: patients 8 months to 14 years with HF due to congenital heart disease or cardiomyopathy; conditions: pediatric HF patients 8 months to 14 years; placebo-controlled

trisodium [3-((1S,3R)-1-biphenyl-4-ylmethyl-3-ethoxycarbonyl-1-butylcarbamoyl)propionate-(S)-3′-methyl-2′-(pentanoyl{2″-(tetrazol-5-ylate)biphenyl-4′-ylmethyl}amino)butyrate] hemipentahydrate [LCZ696]
relative risk reduction (RRR), time to first occurrence of composite endpoint of CV death or HF hospitalization ([1]; N=8442, p=0.0000002): 20%
relative risk reduction (RRR), time to CV death ([1]; p=0.00004): 20%
relative risk reduction (RRR), time to first HF hospitalization ([1]; p=0.00004): 21%

COc1ccccc1OCCNCC(O)COc1cccc2[nH]c3ccccc3c12 (stereo not shown) [carvedilol]
composite measure of HF outcomes (worsening, improved or unchanged), primary endpoint [2]: did not meet its composite primary endpoint
